Assay results: patent US8603493B2, “Carbosilane dendrimers, preparation method thereof and use of same” (Dendrico, S.L., priority 2005, dated 2013)
Entries after “also recorded” stand apart in the source; their conditions may differ.

Assays:
[1] = system: peripheral blood mononuclear cells (PBMC); assay: Visual examination of PBMC incubated with dendrimers; format: cell-based, human; conditions: for visual examination of PBMC: 48 hours
Procedure: The toxicity of dendrimers IM8, IM16, ClNH4, NN, Phe and the commercial controls SF (Superfect) and G4 were tested. Different quantities were taken of each one of them so that the final concentrations with which the cells were incubated were 1 μM, 5 μM, 10 μM, 20 μM and 100 μM.
The blood came from adult donors or the umbilical cord of health newborns. Said blood was diluted ½ with PBS and it was centrifuged in a Ficoll gradient. After said centrifugation, the PBMC halo was recovered and two subsequent washing-centrifuging cycles were carried out. The resulting PBMC were resuspended in complete culture medium with 10% FCS, antibiotics and glutamine.
100 μl of 10% complete medium of foetal calf serum, antibiotics and glutamine were added to a volume of 60 μl of RPMI with the corresponding dendrimer tested. 160 μl were then added to the cells seeded in 340 μl, completing a final volume of 500 μl. The cells were incubated in this way for 48 hours and then the effect of the incubation with the dendrimers was evaluated by its visual examination and by the evaluation of the mitochondrial activity.

PBMC = assay: Staining with Trypan Blue of PBMC treated with dendriplexes or dendrimers; conditions: 72 hours, (+/−)=2/1, IM8 3.93 μM, IM16 1.99 μM, ClNH4 3.98 μM, Phe 1.96 μM, NN 3.94 μM, SF 0.68 μM, G4 100 μM, PPT 0.88 μM (0.34 μM with SF, 1 μM with G4), n = 100 cells per count
ODN = assay: Complex formation between CBS and ODN (agarose gel electrophoresis); format: binding; conditions: 3% agarose gel, RPMI, excess positive charge (+/−) 2/1 and higher
Description: The oligonucleotidic sequences used were antisense sequences (complementary) directed against HIV RNA. The length varied from 15 to 28 bases, being of phosphorothioate nature. The specific ODN used and their sequences are shown below in Table 1.
Several of the ODN were used fluorescent at the 5′ end. This is indicated by adding the letter F to its notation. Thus, “GF” makes reference to the fluorescent anti-gag ODN at end 5′, whilst “RF” makes reference to the anti-Rev ODN fluorescent at end 5′.
Different agarose concentrations were used to show the migration of the ODN and the dendriplexes, bearing in mind the small size of the ODN used. Finally, a 3% agarose concentration in TAE 1× was chosen as the best. The migration of non-fluorescent ODNs was compared with fluorescent ones, both migrating at the same height but the latter increasing the signal perceived considerably. Using them, it thus avoided the isotopic labelling of the ODN. A double well was manufactured to prepare these gels, to permit load volumes of 60 μl, of which 50 μl was mixture volume of the samples in RPMI and 10 μl load buffer with glycerol. As size marker, a ladder of 100 base pairs was used (Gibco BRL®).
For the complex formations in all the tests performed, both on gels and on cells the ratio between the number of positive and negative charges in said complex was taken. As published by different authors in studies with PAMAM dendrimers, it is necessary that the complex formed has an excess positive charge to facilitate its binding to the cell membrane glycoproteins, negatively charged, thus starting the endocytosis process. Likewise, an excess of positive charge is added to ensure the formation of the dendrimer-DNA complex. Therefore, the complexes between the CBS dendrimers and the different nucleic acids were formed in excess number of positive charges (provided by the CBS) compared with negative charges (provided by the ODN). Nevertheless, different charge ratios were tested, making the calculations based in the number of dendrimer charges (fixed) and the number of negative charges of the ODN (also fixed). The 2/1 ratio of positive/negative charges was fixed as sufficient in all dendrimers to form the complexes with a total positive charge, although in some experiments a balance was provided of an equal number of negative charges as positive charges or excess negative charges.
In all the tests, a complex formation volume of 60 μl was used, using phenol red without RPMI serum as support medium.
Tests of complex formation were used with the dendrimers of the invention IM8, ClNH4, NN, Phe and IM16.
The synthesis process of the CBS used in this work begins from an initial nucleus of common structure, which is ended functionalizing in the periphery by the use of different functional groups, which are those which provide the positive charge to the dendrimer and determine the differences between themselves, the dendrimeric nucleus being of apolar nature. Since some of the bonds of the functional groups used to the dendrimeric nucleus could be unstable in aqueous solution, tests were performed to determine if the DNA retention in agarose gels and, therefore, the complex formation between the CBS and the DNA could be due to the total dendrimer structure being conserved or in contrast, the terminal functional groups came away from the moiety of the dendrimeric core which are responsible for the DNA retention. For this, gels were used in which complexes were formed between the ODNs and the integral CBS and those formed supposedly between the ODNs and the terminal functional groups with which the carbosilane skeleton had functionalized, in this case quaternized dimethylethanolamine. As has previously been commented, those positively charged molecules, which are bound to the dendrimer as terminal functional groups, are those which give the dendrimer its charge. As control, the mixtures of ODN-dendrimers, ODN-monomers and ODN alone were compared. […]

ODN PPT = assay: Stability of the dendriplexes in aqueous solution in accordance with time; format: physicochemical; conditions: after 24 hours
Procedure: Different samples of dendriplexes were prepared in aqueous solution formed between the ODN PPT and dendrimers IM8, IM16 and NN at a 2/1 charge ratio according to Example 31 and electrophoresis was performed after different times since the preparation of the samples, specifically 0 hours, 6 hours and 24 hours. During those times, the dendriplexes were maintained in conditions which imitate the physiological conditions: 37° C., in 5% CO2 atmosphere. The results are shown in FIG. 5, wherein the gel of FIG. 5a corresponds to the sample of 0 hours, that of FIG. 5b to the samples after 6 hours and that of FIG. 5c to the samples after 24 hours. In the three cases, a, b and c, the samples appear in the lanes following this order: […]

erythrocytes = assay: Visual examination of erythrocytes (hemagglutination); format: cell-based, human
Procedure: A visual examination was carried out to detect the presence/absence of hemagglutination and quantification of haemoglobin release (haemolysis test) by spectrophotometry. ClNH4 was excluded from the dendrimers of previous Example 38, as the result had been more toxic for lymphocytes, and the results were compared with those produced for a PAMAN type generation 4 dendrimer.
The erythrocytes were obtained after being separated from the PBMC using the same Ficoll gradient cited in the previous Example. They were diluted in PBS to be able to view them individually. The cells were resuspended in 500 μl of PBS and were seeded in a 24-well plate (300,000/well). As positive control, cells treated with 0.2% Triton X-100 were used. Negative control: PBS (blank). The erythrocytes were incubated with different dendrimer concentrations. The presence of hemagglutination, number of cells and release of haemoglobin by hour were evaluated by collecting 100 μl of supernatant and measuring absorbencies by spectrophotometry using a plate reader at a wavelength of 550 nm and 690 nm as reference.

Row | SMILES | visual examination of PBMC ([1]; 1 μM) | visual examination of PBMC ([1]; 5 μM) | TB+ (%), cells stained with Trypan Blue (PBMC) [%] | complex formation with ODN (retention of DNA migration in gel) (ODN) | ODN released from dendrimer (ODN PPT) [%] | order of hemagglutination from greater to lesser (erythrocytes) | Visual examination of erythrocytes incubated with dendrimers (erythrocytes; 1 μM) | Visual examination of erythrocytes incubated with dendrimers (erythrocytes; 5 μM) | Visual examination of erythrocytes incubated with dendrimers (erythrocytes; 10 μM) | Visual examination of erythrocytes incubated with dendrimers (erythrocytes; 20 μM) | visual examination of PBMC ([1]; 10 μM) | induction of hemagglutination / haemolysis (erythrocytes) | toxicity for the lymphocytes from the visual observation (comparison) [1] | visual examination of PBMC ([1]; 20 μM) | visual examination of PBMC ([1]; 100 μM)
1 | C[Si](C)(CCCN)CCC[Si](C)(CCC[Si](C)(C)CCCN)CCC[Si](CCC[Si](C)(CCC[Si](C)(C)CCCN)CCC[Si](C)(C)CCCN)(CCC[Si](C)(CCC[Si](C)(C)CCCN)CCC[Si](C)(C)CCCN)CCC[Si](C)(CCC[Si](C)(C)CCCN)CCC[Si](C)(C)CCCN.Cl.Cl.Cl.Cl.Cl.Cl.Cl.Cl [ClNH4, 2G-[Si(CH2)3NH3^+Cl^−]8] | O.K | Aggregates + | 15.7 | capable of retaining the DNA also with all the charge ratios evaluated |  |  |  |  |  |  |  |  |  |  | 
2 | C[N+](C)(C)CCO[Si](C)(C)CCC[Si](C)(CCC[Si](CCC[Si](C)(CCC[Si](C)(C)OCC[N+](C)(C)C)CCC[Si](C)(C)OCC[N+](C)(C)C)(CCC[Si](C)(CCC[Si](C)(C)OCC[N+](C)(C)C)CCC[Si](C)(C)OCC[N+](C)(C)C)CCC[Si](C)(CCC[Si](C)(C)OCC[N+](C)(C)C)CCC[Si](C)(C)OCC[N+](C)(C)C)CCC[Si](C)(C)OCC[N+](C)(C)C.[I-].[I-].[I-].[I-].[I-].[I-].[I-].[I-] [IM8, 2G-[Si(OCH2CH2NMe3^+I^−)]8] | O.K | O.K | 17.1 | capable of retaining the DNA; also recorded: capable of retaining the migration of all the ODN | ~100 | G4>Phe>IM16>IM8>NN | O.K | Ag+ | Ag+ | No cells |  |  |  |  | 
3 | C[N+](C)(C)CCO[Si](C)(CCC[Si](C)(CCC[Si](CCC[Si](C)(CCC[Si](C)(OCC[N+](C)(C)C)OCC[N+](C)(C)C)CCC[Si](C)(OCC[N+](C)(C)C)OCC[N+](C)(C)C)(CCC[Si](C)(CCC[Si](C)(OCC[N+](C)(C)C)OCC[N+](C)(C)C)CCC[Si](C)(OCC[N+](C)(C)C)OCC[N+](C)(C)C)CCC[Si](C)(CCC[Si](C)(OCC[N+](C)(C)C)OCC[N+](C)(C)C)CCC[Si](C)(OCC[N+](C)(C)C)OCC[N+](C)(C)C)CCC[Si](C)(OCC[N+](C)(C)C)OCC[N+](C)(C)C)OCC[N+](C)(C)C.[I-].[I-].[I-].[I-].[I-].[I-].[I-].[I-].[I-].[I-].[I-].[I-].[I-].[I-].[I-].[I-] [IM16, 2G-[Si(OCH2CH2NMe3^+I^−)2]8] | O.K | O.K | 18.5 | capable of retaining the DNA | ~100 | G4>Phe>IM16>IM8>NN | O.K | Ag++ |  | No cells | Cell aggregates + | induces agglutination |  |  | 
4 | C[N+](C)(C)CCOc1cc(CO[Si](C)(C)CCC[Si](C)(CCC[Si](CCC[Si](C)(CCC[Si](C)(C)OCc2cc(OCC[N+](C)(C)C)cc(OCC[N+](C)(C)C)c2)CCC[Si](C)(C)OCc2cc(OCC[N+](C)(C)C)cc(OCC[N+](C)(C)C)c2)(CCC[Si](C)(CCC[Si](C)(C)OCc2cc(OCC[N+](C)(C)C)cc(OCC[N+](C)(C)C)c2)CCC[Si](C)(C)OCc2cc(OCC[N+](C)(C)C)cc(OCC[N+](C)(C)C)c2)CCC[Si](C)(CCC[Si](C)(C)OCc2cc(OCC[N+](C)(C)C)cc(OCC[N+](C)(C)C)c2)CCC[Si](C)(C)OCc2cc(OCC[N+](C)(C)C)cc(OCC[N+](C)(C)C)c2)CCC[Si](C)(C)OCc2cc(OCC[N+](C)(C)C)cc(OCC[N+](C)(C)C)c2)cc(OCC[N+](C)(C)C)c1.[I-].[I-].[I-].[I-].[I-].[I-].[I-].[I-].[I-].[I-].[I-].[I-].[I-].[I-].[I-].[I-] [Phe, 2G-[Si(OCH2—(C6H3)-3,5-(OCH2CH2NMe3^+I^−)2)]8] | O.K | O.K | 11.3 | capable of forming complexes with the ODN |  | G4>Phe>IM16>IM8>NN | Ag+ | Ag+++ | Ag+++ |  | O.K | induces hemagglutination | least toxic | Few cells | Isolated cells.
